Experimental data as given in patent US20250387771A1, “COMPOSITION COMPRISING BIODEGRADABLE MICROCAPSULES” (priority 2022, published 2025).

Test system: biological contamination of microcapsule compositions
Assay: Preservation of microcapsule compositions against biological contamination over time by conventional preservation agents
Settings: agent used alone; one month or more

Compound: p-hydroxybenzoic esters
- Prevention of biological contamination of microcapsule compositions over time: unable, when used alone, to prevent the biological contamination of microcapsule compositions over time

Compound: O=C(O)c1ccccc1 [benzoic acid]
- Prevention of biological contamination of microcapsule compositions over time: unable, when used alone, to prevent the biological contamination of microcapsule compositions over time
